Source: patent publication US20120095100A1, “USE OF A COMBINATION OF D-ASPARTIC AND L-ASPARTIC ACIDS OR SALTS THEREOF FOR THE TREATMENT OF MALE INFERTILITY” (MERCK SERONO S.P.A., priority 2009, published 2012)
Several values for one entry are separate records, joined by “and”; a condition that tells them apart may be missing. Equal entries are not always repeated. Where two headings read alike, the source gives them in different places. Marks after values point to notes of the source that are not given here.

Legend:
[1] = system: spermatozoa in rabbit seminal liquid; assay: Effect of feed containing D-aspartic/L-aspartic acid on number and motility of spermatozoa in rabbit seminal liquid; assay type: in vivo; conditions: rabbits, about 1.14 g/day total in feed, 20 days
Excerpt: The study has been carried out on two groups of rabbits. […] A same age second group of 10 rabbits representing a control group (or placebo) was fed eat for 20 days with same type food as above prepared, but without the addition of D-aspartic and L-aspartic acids mixture. The experiments have been carried out in a rabbit breeding farm (“Potenza Breeders' Association”, Potenza, Italy). Before the start and at the end of the experiment from each rabbit a sperm sample has been collected by stimulation with an artificial vagina (see paper: “G. Macchia et al., DL-aspartic acid administration improve semen quality in rabbit bucks, published on “Animal Reproduction Science, 118, 337-343, 2010) and the total number of spermatozoa/ml of ejaculate and motility thereof have been determined.
(§1) The number of the spermatozoa and progressive quick motility are determined according to (World Health Organization) WHO guidelines using a Makler Chamber for the count (Sefi Medtstl Instrument, Haifa, Israel) and in the same place the progressive quick motility has been determined.
Also this study has been carried out on two groups of same age and weight rabbits as used for previous study. […] Also in this case seminal liquid has been collected before and after the experiment and then examined for spermatozoon number and motility thereof.
Also this study carried out on rabbits has been carried out in the same way as previous ones. […] Also in this case total amount of D-Asp+L-Asp ingested daily by rabbits was about 1.140 g.

[2] = system: spermatozoa in human seminal liquid; assay: Number and quick progressive motility of spermatozoa in human seminal liquid after oral D-aspartic/L-aspartic acid; assay type: in vivo; conditions: men
Excerpt: (§2) Like ingestion procedure, the D-aspartic and L-aspartic acid mixture preferably was dispersed in a half filled glass containing water or fresh or stored fruit juice (orange, apple, pear, etc.), then stirred and ingested.
(§3) Before the start of the study and after 20 days of treatment in the morning from each subject blood has been collected and the concentration of LH (luteinizing hormone) and testosterone has been determined in serum obtained from said blood. Moreover, from every subject also the seminal liquid has been collected for which quick progressive motility together with total number spermatozoa/ml of sperm has been determined.
as §1, with “The seminal liquid has been collected by masturbation after 3-5 abstinence days. The” for “The”, “have been” for “are”

[3] = system: testosterone in human serum; assay: Testosterone in human serum after oral D-aspartic/L-aspartic acid; assay type: in vivo; conditions: men, L-aspartic acid alone
Excerpt: as §2, §3

[4] = system: LH (luteinizing hormone) in human serum; assay: LH in human serum after oral D-aspartic/L-aspartic acid; assay type: in vivo; conditions: men, L-aspartic acid alone
Excerpt: as §2, §3

[5] = system: spermatozoa in rabbit seminal liquid; assay: Effect of sodium D-aspartate and sodium D-/L-aspartate mixtures on number and motility of spermatozoa in rabbit seminal liquid; assay type: in vivo; conditions: rabbits, 0.25 g/day total mixed with food, 20 days
Excerpt: The study has been carried out on two groups of rabbits (10 rabbits for each group) in order to test the effect of sodium D-aspartate and of the sodium D-aspartate in combination with a determined amount of sodium L-aspartate on the quality of seminal liquid, i.e. on number of spermatozoa/ml and on the progressive quick motility thereof.
The experiment involved the ingestion by a group of 10 male adult rabbits, 6 month old, of an amount of sodium D-aspartate corresponding to 0.250 g daily ([…] of body weight) over 20 days. Practically, sodium D-aspartate was mixed with food in such amount that the food daily ingested by the rabbit contained 0.250 g of sodium D-aspartate. In the same way, in a second experiment carried out on another group of 10 same age male adult rabbits, a mixture consisting of 0.2 g of sodium D-aspartate and 0,05 g of sodium L-aspartate (80% D-Asp: 20% L-Asp) was administered. Before the start of the experiment and at the end of drug ingestion lasting 20 days, from every rabbit a sperm sample obtained by stimulation using an artificial vagina has been collected and the total number of spermatozoa/ml of ejaculate and motility thereof have been determined.
as §1, with “determined. The rabbit semen was 1:10 diluted in an iso-osmotic solution due to excessive concentration.” for “determined.”
The study involved the administration of a mixture consisting of 0.125 g of sodium D-aspartate+0,125 g of sodium L-aspartate (D-Asp 50%: L-Asp 50%) to a group of 10 rabbits according to procedure of Example 2. […] In this case the production of the number of spermatozoa was increased by 25% and motility by 55% compared to controls showing that also in this case an improvement compared to D-aspartate alone was obtained but it was lower than mixture consisting of 80% D-aspartate and 20% L-aspartate.

[6] = system: LH (luteinizing hormone) in human serum; conditions: men 25-40 years, 30 days
Excerpt: (§4) The study involves the oral ingestion (after breakfast or main meal) by a group of 10 25-40 year old people of a daily dose consisting of 3.12 g of sodium D-aspartate (19,2 μmole of sodium D-aspartate; 0.27 μmol/kg of body weight for a 70 kg person) over 30 days. Another group of 10 25-40 year old people (after breakfast or main meal) ingested a daily dose of a mixture consisting of 2.49 g of sodium D-aspartate and 0.63 g of sodium L-aspartate (80% sodium D-aspartate and 20% sodium L-aspartate) for the same period.
(§5) LH and testosterone hormonal assays have been carried out using specific commercial kits for clinical chemical use.

[7] = system: spermatozoa in human seminal liquid; assay: Number and quality of spermatozoa in human seminal liquid after oral sodium D-aspartate or sodium D-/L-aspartate mixtures; assay type: in vivo; conditions: men 25-40 years, oral 3.12 g/day total, 30 days
Excerpt: as §1, with “Seminal liquid has been collected through masturbation after 3-5 abstinence days. The” for “The”, “thereof have been” for “are”
It is to be pointed out that this study has been carried out on selected subjects having a number of spermatozoa in seminal liquid from 15.000.000 to 20.000.000/ml, that is minimum threshold values within normal range. […] In this case therefore the action of D-aspartate stimulates their maturation to vital spermatozoa.

[8] = system: testosterone in human serum; conditions: men 25-40 years, oral 3.12 g/day total, 30 days
Excerpt: as §4, §5

[9] = system: luteinizing hormone (LH), growth hormone, prolactin (PRL) and testosterone in blood; conditions: rat, orally administered; cited from earlier work
[10] = system: LH and testosterone values and spermatozoon number and motility; conditions: man, daily one or two 3 g doses, at least 30 days; cited from earlier work

In the case of `N[C@@H](CC(=O)O)C(=O)O` [L-aspartic acid], the “Immobile after treatment (on base 100)” value [1] was 29%, the “Quick motility after treatment (on base 100)” value [1] was 41% and the “Slow motility after treatment (on base 100)” value [1] was 30%. For the same compound, the “Quick progressive motility of spermatozoa after treatment, individual subjects” value ([2]; % progressive quick of 100 observed spermatozoa, one line per subject 1°-10°) was 25% and 19% and 35% (2×) and 18% and 40% and 45% and 22% and 27% and 39%, the “Average % increment of quick progressive motility” value ([2]; average ± SD of 10 subjects) was “+35.6% ± 9.05” and the “% increment of number of spermatozoa, individual subjects” value ([2]; one line per subject 1°-10°) was 26% and 40% and 20% and 33% and 36% and 15% and 13% (2×) and 19% and 12%. The “% increment of quick progressive motility, individual subjects” value ([2]; one line per subject 1°-10°) was 38% and 26% and 45% and 50% and 25% (2×) and 28% and 37% and 42% and 40%, the “Number of spermatozoa in seminal liquid after treatment, individual subjects” value ([2]; one line per subject 1°-10° (20 days for the 80/20 mixture)) was 8 × 10^6 and 35 × 10^6 and 6 × 10^6 and 20 × 10^6 and 41 × 10^6 and 3 × 10^6 and 34 × 10^6 and 51 × 10^6 and 25 × 10^6 and 18 × 10^6 and the “Testosterone haematic hormone before and after therapy” value [3] was “unaltered”. The “LH haematic hormone before and after therapy” value [4] was “unaltered”.

For `N[C@H](CC(=O)[O-])C(=O)[O-].[Na+].[Na+]` [100% D-Aspartate, sodium D-aspartate], the “% increment of number of spermatozoa vs before the treatment” value [5] was 19.3%, the “% increment of quick progressive spermatozoa vs before the treatment” value [5] was 37% and the “Immobile spermatozoa after ingestion (on 100 base)” value [5] was 18%*. For the same compound, the “Quick progressive spermatozoa after ingestion (on 100 base)” value [5] was 55%*, the “Slow spermatozoa after ingestion (on 100 base)” value [5] was 27%* and the “% increment of quick progressive spermatozoa vs before the treatment” value ([5]; listed as D-aspartate) was 37%. For the same compound, the “Quick progressive spermatozoa after ingestion (on 100 base)” value ([5]; listed as D-aspartate) was 55%, the “% increment of number of spermatozoa vs before the treatment” value ([5]; listed as sodium D-aspartate) was 19,3% and the “% increment of quick progressive spermatozoa vs before the treatment” value ([5]; listed as sodium D-aspartate) was 37%. For the same compound, the “Quick progressive spermatozoa after ingestion (on 100 base)” value ([5]; listed as sodium D-aspartate) was 55%, the “LH % increment vs before the treatment” value ([6]; oral 3.12 g/day total) was “+25.6%” and the LH after ingestion ([6]; oral 3.12 g/day total, average of 10) was 5.4 mIU/ml serum. For the same compound, the “LH % increment vs before the treatment” value ([6]; oral 3.12 g/day total, listed as sodium D-aspartate) was 25,6%, the “LH haematic value after ingestion” value ([6]; oral 3.12 g/day) was 5.4 mUI/ml and the “% increase of quick progressive spermatozoa vs before the treatment” value [7] was “+28%”. For the same compound, the “% increase of total spermatozoa vs before the treatment” value [7] was “+27%”, the “Immobile spermatozoa after ingestion (on base 100)” value [7] was 30%* and the “Quick progressive spermatozoa after ingestion (on base 100)” value [7] was 45%*. For the same compound, the “Slow spermatozoa after ingestion (on base 100)” value [7] was 25%*, the “% increase of quick progressive spermatozoa vs before the treatment” value ([7]; listed as sodium D-aspartate) was 28% and the “% increase of total spermatozoa vs before the treatment” value ([7]; listed as sodium D-aspartate) was 27%. For the same compound, the “Testosterone % increment vs before the treatment” value [8] was “+31.2%”, the Testosterone after ingestion ([8]; average of 10) was 6.3 ng/ml serum and the “Testosterone % increment vs before the treatment” value ([8]; listed as sodium D-aspartate) was 31.2%.

In the case of `N[C@H](CC(=O)O)C(=O)O` [D-aspartic acid], the “Blood LH, growth hormone, prolactin and testosterone” value [9] is given as “temporary increase” and the “LH and testosterone values and spermatozoon number and motility” value [10] is given as “induced an increase”.
